Test results: paper PMC9841525, “Chemical Blockage of the Mitochondrial Rhomboid Protease PARL by Novel Ketoamide Inhibitors Reveals Its Role in PINK1/Parkin-Dependent Mitophagy” (Journal of Medicinal Chemistry, 2022)
pIC50: −log10 of the molar value. *1 amine or outer side, *2 acyl side, *3 side chain or, on linkers, in order; H or OH if unused. Where a SMILES comes first, the peptide text is derived from it. [ ]: non-standard residue; d: D form. The star is where a group is joined. NH(4-phenylbutyl) = c1ccc(CCCCN*)cc1; X1 = C[C@H](N[*:1])C(=O)C(=O)[*:2]

How the values were obtained:
PARL [1] = target: T1, PARL (Homo sapiens, UniProt Q9H300); assay: CCCP-induced PGAM5-FLAG cleavage by endogenous PARL in HEK293T cells, immunoblot; assay type: cell-based; set-up: expressed in transfected cells; host or cells: Flp-In HEK293 T-REx PARL knockout cells; conditions: 3 h, mean ± SEM of four experiments, read-out: Apparent IC50, CCCP-induced PGAM5 cleavage
T1 sequence (Q9H300 53-379): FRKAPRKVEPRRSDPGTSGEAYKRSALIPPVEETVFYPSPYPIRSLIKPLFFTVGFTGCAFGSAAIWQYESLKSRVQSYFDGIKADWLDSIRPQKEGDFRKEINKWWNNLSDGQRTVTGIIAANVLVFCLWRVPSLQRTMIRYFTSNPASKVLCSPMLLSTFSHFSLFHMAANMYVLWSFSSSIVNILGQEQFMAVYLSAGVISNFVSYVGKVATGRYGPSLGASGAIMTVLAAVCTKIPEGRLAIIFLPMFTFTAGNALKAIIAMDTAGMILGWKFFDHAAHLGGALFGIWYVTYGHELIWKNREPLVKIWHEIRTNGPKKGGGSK
Procedure: Inducible stable Flp-In HEK293 T-REx cells expressing PINK1 were described previously.[33] HEK293 T-REx PINK1 and HEK293T cells were grown in DMEM (Gibco) supplemented with 10% (v/v) fetal bovine serum (ThermoFisher), 1% (v/v) GlutaMAX (Gibco), 1% (v/v) sodium pyruvate (Gibco), 125 μg/mL hygromycin (Invitrogen), and 10 μg/mL blasticidin (Gibco) or DMEM supplemented with 10% (v/v) fetal bovine serum, respectively, at 37 °C in 5% (v/v) CO2. For microscopy, cells were seeded on poly-L-lysine (Sigma)-coated slides. Transient plasmid transfections were performed using 25 kDa linear polyethylenimine (Polysciences). Plasmid (100 ng) encoding HA-Parkin-IRES-GFP, mito-mCherry or Parkin-mEGFP, or 500 ng plasmid encoding PGAM5-FLAG were used per 6-well. Total transfected DNA was 2 μg/well. For siRNA transfection, 2 × 10^5 cells were seeded per 6-well and on the next day transfected with 20 nM siRNA-oligonucleotide using lipofectamine RNAiMAX (ThermoFisher). Cells were analyzed 27 h post-transfection or five days post-siRNA-transfection. HEK293 T-REx PINK1 cells were induced with 0.3 μg/mL doxycycline for 24 h before further processing. […] For quantification, ImageJ was used (http://rsb.info.nih.gov/ij/). Immunoblots shown are representative of at least three independent experiments and were evaluated using Excel and GraphPad Prism 9 (GraphPad Software, Inc.).

PARL [2] = target: T1, PARL; assay: PARL inhibition in vitro, PARL in liposomes with substrate compound 4; assay type: biochemical; set-up: hexahistidine tag (C); made in house; host or cells: continuous-exchange cell-free expression in bacterial lysates with T7 polymerase (CUBE biotech), into liposomes
Procedure: Liposome preparation and cell-free protein expression of PARL were carried out essentially as described previously.[27] Liposomes resembling the lipid composition of the IMM were prepared by mixing 40% DOPC (1,2-dioleoyl-sn-glycero-3-phosphocholine), 33.8% DOPE (1,2-dioleoyl-sn-glycero-3-phosphoethanolamine), 18% CL(18:1)4 (1′,3′-bis[1,2-dioleyl-sn-glycero-3-phospho]-glycerol), 3% DOPS (1,2-dioleoyl-sn-glycero-3-phospho-L-serine), 5% soy-PI (L-α-phosphatidylinositol), and 0.2% rhodamine-PE (1,2-dioleoyl-sn-glycero-3-phosphoethanolamine-N-(lissamine rhodamine B sulfonyl)) in chloroform, followed by the evaporation of chloroform by a stream of nitrogen gas and drying in a vacuum chamber (Binder) for 1 h. Dried lipids were dissolved in buffer (5 mM Tris/HCl, pH 8.5, 10 mM KOAc) and extruded 21 times through a mini extruder (Avanti Polar Lipids) using a polycarbonate membrane with a pore size of […]. […] The PARL-containing liposomes were purified by a step-wise sucrose step-gradient centrifugation (0, 15, 30, and 40% sucrose in 5 mM HEPES pH 7.5 with 25 mM NaCl) for 2 h at 200,000 × g. Soluble proteoliposomes were harvested at the 0%/15% sucrose interface after the centrifugation. Concentration of PARL was determined by absorption at 280 nm.
PARL inhibition in vitro was measured in 5 mM Tris, 5 mM Mg(OAc)2, 25 μM Zn(OAc)2, 0.1 μg/μL BSA, 10% DMSO, pH 8.0 using PARL in liposomes at 0.07 mg/mL and compound 4 at 100 μM final concentration. Inhibitor concentrations were determined by quantitative amino acid analysis. Inhibitors in DMSO were dissolved at the respective concentrations into the reaction buffer by vigorous mixing at 1000 rpm, 37 °C for 40 min and then pre-incubated with PARL in liposomes at 37° for 1 h. The cleavage reaction was started by adding compound 4 and carried out at 37 °C in 96-well black HTS plates (Greiner Bio-One). Fluorescence was read in a plate reader (Tecan Infinite M1000) with excitation and emission wavelengths set to 355 and 450 nm, respectively. Data were evaluated using Excel (Microsoft) and GraphPad Prism 9 (GraphPad Software, Inc.). The data shown are representative of at least three independent experiments.

Compound: CC(=O)N[C@@H](C)C(=O)N[C@H](C(=O)N[C@@H](Cc1ccccc1)C(=O)N[C@@H](CC(C)C)C(=O)N[C@@H](C)C(=O)C(=O)NCCCCc1ccccc1)C(C)C [compound 5] (Ac-AVFL[X1]-{NH(4-phenylbutyl)})
- pIC50 (PARL [1]): 6.82
- Fold better than compound 6 in vitro (PARL [2]; ratio of IC50 values, compound 5 vs compound 6): about 3 fold
- pIC50 (PARL [2]; recombinant mature PARL in liposomes, 100 μM substrate compound 4, mean ± SEM of three or four measurements): 7.55
